Assays:
[1] = molecular target: T1, ∆1-191 APC1 (∆1-191_APC1) (Homo sapiens, UniProt Q6NUK1); assay: counter-exchange of internal ADP with external […]-ATP in proteoliposomes; type: biochemical; conditions: 2.5 mM internal ADP; 5 mM MgCl2 outside; pH 7.4, 20 °C
T1 construct: gene SLC25A24; carrier domain only, N-terminal truncation; His8-Factor Xa tag cut, primer adds TSED after IEGR; in liposomes
T1 sequence (Q6NUK1 191-477): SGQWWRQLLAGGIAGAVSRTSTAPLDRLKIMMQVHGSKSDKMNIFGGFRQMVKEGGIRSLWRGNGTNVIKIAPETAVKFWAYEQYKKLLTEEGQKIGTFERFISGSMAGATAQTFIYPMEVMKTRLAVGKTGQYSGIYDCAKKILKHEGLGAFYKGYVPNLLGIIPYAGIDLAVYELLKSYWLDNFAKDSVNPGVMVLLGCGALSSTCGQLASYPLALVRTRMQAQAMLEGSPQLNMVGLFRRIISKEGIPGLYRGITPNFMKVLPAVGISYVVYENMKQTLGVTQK

[2] = molecular target: T1, ∆1-191 APC1 (∆1-191_APC1); assay: […]-ATP uptake into proteoliposomes, initial rates; type: biochemical; conditions: 1.5 μM external ATP exchanged for 2.5 mM internal ADP; 5 mM MgCl2 outside; pH 7.4, 20 °C; labelled compound
purified protein = substrate: Nc1ncnc2c1ncn2[C@@H]1O[C@H](COP(=O)(O)OP(=O)(O)OP(=O)(O)O)[C@@H](O)[C@H]1O; assay: purified protein; type: biochemical, Homo sapiens; conditions: 4 mM total external CaCl2 (calcium-activated state), 2.5 mM internal ATP, 20 mM Tris-HCl pH 7.4, 20 °C, labelled compound

## Nc1ncnc2c1ncn2[C@@H]1O[C@H](COP(=O)(O)OP(=O)(O)O)[C@@H](O)[C@H]1O [ADP]
[1]
  counter-exchange of internal ADP with external [14C]-ATP in proteoliposomes: hetero-exchange between ATP and ADP was monitored over a 15-minute time course

## Nc1ncnc2c1ncn2[C@@H]1O[C@H](COP(=O)(O)OP(=O)(O)OP(=O)(O)O)[C@@H](O)[C@H]1O [ATP]
[2]
  [14C]-ATP uptake into proteoliposomes, initial rates: uptake rate of ATP was highest in the presence of externally added magnesium

B1: full-length human mitochondrial ATP-Mg/Pi carrier isoform 1 (APC1; SCaMC1/SLC25A24) (Homo sapiens) (protein)
chain: MLRWLRDFVLPTAACQDAEQPTRYETLFQALDRNGDGVVDIGELQEGLRNLGIPLGQDAEEKIFTTGDVNKDGKLDFEEFMKYLKDHEKKMKLAFKSLDKNNDGKIEASEIVQSLQTLGLTISEQQAELILQSIDVDGTMTVDWNEWRDYFLFNPVTDIEEIIRFWKHSTGIDIGDSLTIPDEFTEDEKKSGQWWRQLLAGGIAGAVSRTSTAPLDRLKIMMQVHGSKSDKMNIFGGFRQMVKEGGIRSLWRGNGTNVIKIAPETAVKFWAYEQYKKLLTEEGQKIGTFERFISGSMAGATAQTFIYPMEVMKTRLAVGKTGQYSGIYDCAKKILKHEGLGAFYKGYVPNLLGIIPYAGIDLAVYELLKSYWLDNFAKDSVNPGVMVLLGCGALSSTCGQLASYPLALVRTRMQAQAMLEGSPQLNMVGLFRRIISKEGIPGLYRGITPNFMKVLPAVGISYVVYENMKQTLGVTQK
notes: full length, N-terminal His8 tag + Factor Xa site (IEGR), tag cut by factor Xa; codon-optimised, expressed in S. cerevisiae mitochondria; purified in LMNG, reconstituted in PC/cardiolipin liposomes
Purified protein
  Km: 29 ± 8 µM

Source: article PMC5369052, “Calcium regulation of the human mitochondrial ATP-Mg/Pi carrier SLC25A24 uses a locking pin mechanism” (Scientific Reports, 2017)
